Experimental findings from ChEMBL document CHEMBL3804755, “Discovery of new [1,4]dioxino[2,3-f]quinazoline-based inhibitors of EGFR including the T790M/L858R mutant” (Bioorg Med Chem, 2016) are described below.

SMILES strings stand for the structures.

Data set [1] has as its target Epidermal growth factor receptor (Homo sapiens, UniProt P00533). The experiment in a line: Inhibition of wild type EGFR (unknown origin) autophosphorylation preincubated for 30 mins followed by ATP addition measured after 1 hr by kinase-glo luminescence assay. On the technique in general: Kinase-Glo measures the ATP left after a reaction by luminescence.
In data set [2] the target is Epidermal growth factor receptor (Homo sapiens, UniProt P00533, L858R/T790M). The class given is protein assay.
The test system of data set [3] is NCI-H358. The experiment in a line: Antiproliferative activity against human NCI-H358 cells assessed as reduction in cell viability after 48 hrs by cck8 assay. As to conditions: NCI-H358, 48 h. In kind it is functional, cell-based.
Data set [4] relates to A549. The experiment in a line: Antiproliferative activity against human A549 cells assessed as reduction in cell viability after 48 hrs by cck8 assay. The class given is functional, cell-based. As to conditions: A549, 48 h.
A short description of data set [5]: Cytotoxicity against HEK293T assessed as reduction in cell viability by MTT assay. As to conditions: human, HEK293T cells. In kind it is cell-based, HEK-293T. On the technique in general: Formazan colour is commonly taken as a measure of viable cells.

Sequence of Epidermal growth factor receptor (Homo sapiens, UniProt P00533) (P00533 whole entry): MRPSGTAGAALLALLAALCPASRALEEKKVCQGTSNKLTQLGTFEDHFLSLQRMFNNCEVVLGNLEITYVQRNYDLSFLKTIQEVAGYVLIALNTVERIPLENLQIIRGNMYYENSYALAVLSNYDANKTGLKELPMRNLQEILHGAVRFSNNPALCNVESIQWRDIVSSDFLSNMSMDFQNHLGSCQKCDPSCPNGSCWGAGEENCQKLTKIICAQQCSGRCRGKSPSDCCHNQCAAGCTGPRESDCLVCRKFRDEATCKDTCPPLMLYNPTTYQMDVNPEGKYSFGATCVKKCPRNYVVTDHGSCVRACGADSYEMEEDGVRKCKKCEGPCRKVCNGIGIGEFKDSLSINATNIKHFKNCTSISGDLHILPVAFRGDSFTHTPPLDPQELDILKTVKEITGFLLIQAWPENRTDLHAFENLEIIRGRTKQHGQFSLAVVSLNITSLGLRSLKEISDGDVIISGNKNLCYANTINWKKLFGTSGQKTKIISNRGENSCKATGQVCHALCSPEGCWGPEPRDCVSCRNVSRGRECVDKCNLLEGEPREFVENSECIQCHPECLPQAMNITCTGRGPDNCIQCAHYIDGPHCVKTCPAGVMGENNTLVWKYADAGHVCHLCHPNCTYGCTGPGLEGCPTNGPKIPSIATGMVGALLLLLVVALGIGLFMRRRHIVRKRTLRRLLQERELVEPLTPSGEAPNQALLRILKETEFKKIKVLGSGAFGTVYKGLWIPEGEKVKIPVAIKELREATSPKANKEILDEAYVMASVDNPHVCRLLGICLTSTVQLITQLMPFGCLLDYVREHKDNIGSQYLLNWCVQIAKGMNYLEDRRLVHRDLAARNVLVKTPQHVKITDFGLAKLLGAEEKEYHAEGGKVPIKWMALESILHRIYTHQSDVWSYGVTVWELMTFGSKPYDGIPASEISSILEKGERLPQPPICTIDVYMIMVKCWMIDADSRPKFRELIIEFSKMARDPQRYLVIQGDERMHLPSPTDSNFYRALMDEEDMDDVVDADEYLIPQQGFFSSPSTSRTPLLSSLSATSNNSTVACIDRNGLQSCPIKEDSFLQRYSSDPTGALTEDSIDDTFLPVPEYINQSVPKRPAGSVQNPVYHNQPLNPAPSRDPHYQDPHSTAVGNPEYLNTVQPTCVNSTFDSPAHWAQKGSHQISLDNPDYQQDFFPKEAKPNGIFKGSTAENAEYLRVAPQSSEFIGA
Sequence of Epidermal growth factor receptor (Homo sapiens, UniProt P00533, L858R/T790M) (P00533 25-1210 T790M/L858R limits assumed): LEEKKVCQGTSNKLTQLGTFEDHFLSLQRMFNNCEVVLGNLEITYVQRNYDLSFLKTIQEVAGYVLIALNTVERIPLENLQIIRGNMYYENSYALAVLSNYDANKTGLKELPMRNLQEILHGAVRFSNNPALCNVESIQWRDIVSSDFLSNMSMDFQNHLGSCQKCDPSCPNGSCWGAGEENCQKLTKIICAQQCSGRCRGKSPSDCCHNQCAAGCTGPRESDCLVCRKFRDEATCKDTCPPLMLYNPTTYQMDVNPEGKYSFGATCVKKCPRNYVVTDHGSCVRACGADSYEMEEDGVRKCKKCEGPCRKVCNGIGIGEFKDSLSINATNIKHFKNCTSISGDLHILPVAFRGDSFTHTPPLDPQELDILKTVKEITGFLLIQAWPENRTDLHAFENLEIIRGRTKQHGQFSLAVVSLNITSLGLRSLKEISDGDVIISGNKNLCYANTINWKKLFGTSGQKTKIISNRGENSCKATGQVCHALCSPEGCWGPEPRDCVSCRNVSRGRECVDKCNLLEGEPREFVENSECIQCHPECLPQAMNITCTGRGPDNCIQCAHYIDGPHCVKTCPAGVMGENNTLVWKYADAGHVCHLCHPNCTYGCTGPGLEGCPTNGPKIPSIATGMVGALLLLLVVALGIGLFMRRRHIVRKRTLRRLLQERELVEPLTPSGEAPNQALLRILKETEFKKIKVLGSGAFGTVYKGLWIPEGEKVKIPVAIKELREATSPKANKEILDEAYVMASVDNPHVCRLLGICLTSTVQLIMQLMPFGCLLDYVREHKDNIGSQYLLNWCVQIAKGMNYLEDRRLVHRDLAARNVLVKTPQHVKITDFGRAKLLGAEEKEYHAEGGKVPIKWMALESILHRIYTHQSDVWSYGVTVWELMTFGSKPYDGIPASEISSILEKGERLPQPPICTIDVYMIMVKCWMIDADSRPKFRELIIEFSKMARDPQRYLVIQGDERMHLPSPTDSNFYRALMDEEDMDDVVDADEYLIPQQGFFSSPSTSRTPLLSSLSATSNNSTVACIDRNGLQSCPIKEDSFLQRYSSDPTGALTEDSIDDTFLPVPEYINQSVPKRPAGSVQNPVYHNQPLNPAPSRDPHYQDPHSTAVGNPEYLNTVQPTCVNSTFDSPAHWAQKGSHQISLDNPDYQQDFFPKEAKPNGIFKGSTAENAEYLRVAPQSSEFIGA

In the case of `CCOc1cc2ncnc(Nc3ccc(C)c(Cl)c3)c2c2c1OCCO2`, the IC50 turned out to be 6.7 nM in data set [1], 33.8 nM in data set [2], 17300 nM in data set [3] and 11800 nM in data set [4].

Molecule `Fc1cccc(Nc2ncnc3cc(OCCCN4CCOCC4)c4c(c23)OCCO4)c1` returned an IC50 in data set [1] of 83.9 nM.

Regarding `C#Cc1cccc(Nc2ncnc3cc(OCC)c4c(c23)OCCO4)c1`, the half-maximal inhibitory concentration (IC50) in data set [1] turned out to be 9.2 nM; in data set [2], 21.5 nM; in data set [3], 8890 nM; in data set [4], 10500 nM. Also, the CC50 in data set [5] is 28200 nM.

On to `Cc1ccc(Nc2ncnc3cc(OC(C)C)c4c(c23)OCCO4)cc1[N+](=O)[O-]`, for which the results for the IC50 in data set [1] and in data set [2] were 184 nM and above 1000 nM, respectively.

`CC(C)Oc1cc2ncnc(Nc3ccc(Cl)c([N+](=O)[O-])c3)c2c2c1OCCO2`: the values for the IC50 in data set [1] and in data set [2] were 103 nM and 1300 nM, respectively.

In data set [1], `Fc1ccc(Nc2ncnc3cc(OCCCN4CCOCC4)c4c(c23)OCCO4)cc1Cl` registered an IC50 of 25.9 nM.

For `C#Cc1cccc(Nc2ncnc3cc(OC)c4c(c23)OCCO4)c1`, the IC50 in data set [1] is 10.9 nM; in data set [2], above 1000 nM. The CC50 in data set [5] amounted to 11700 nM.

Consider `CCOc1cc2ncnc(Nc3cccc([N+](=O)[O-])c3)c2c2c1OCCO2`, for which the IC50 was 9.7 nM in data set [1] and 71 nM in data set [2]. The CC50 in data set [5] is 42000 nM.

For `CCOC(C)Oc1cc2ncnc(Nc3ccc(C)c([N+](=O)[O-])c3)c2c2c1OCCO2` (stereo not given), the IC50 is 363 nM in data set [1] and above 1000 nM in data set [2].

In the case of `COCCOc1cc2ncnc(Nc3ccc(F)c(C#N)c3)c2c2c1OCCO2`, the IC50 is 388 nM in data set [1] and above 1000 nM in data set [2].

For the molecule `CC(C)Oc1cc2ncnc(Nc3ccc(F)c(Cl)c3)c2c2c1OCCO2`, the IC50 turned out to be 29.1 nM in data set [1], 46.3 nM in data set [2], 6920 nM in data set [3] and 11600 nM in data set [4].

Consider `COCCOc1cc2ncnc(Nc3ccc(C)c([N+](=O)[O-])c3)c2c2c1OCCO2`, for which the IC50 is 74.6 nM in data set [1] and above 1000 nM in data set [2].

As for `C#Cc1cccc(Nc2ncnc3cc(OCC4CCCO4)c4c(c23)OCCO4)c1` (stereo not given), the IC50 in data set [1] was 27.3 nM; in data set [2], 121 nM. Besides, the CC50 in data set [5] came out at 40200 nM.

In the case of `CC(C)Oc1cc2ncnc(Nc3ccc(F)c([N+](=O)[O-])c3)c2c2c1OCCO2`, the values for the concentration for half-maximal inhibition (IC50) in data set [1] and in data set [2] were 82.5 nM and above 1000 nM, respectively.

`CCOC(C)Oc1cc2ncnc(Nc3ccc(OC)c([N+](=O)[O-])c3)c2c2c1OCCO2` (stereo not given): the IC50 in data set [1] and in data set [2] was above 1000 nM each time.

`C#Cc1cccc(Nc2ncnc3cc(OCCOC)c4c(c23)OCCO4)c1`: the IC50 in data set [1] worked out at 21 nM; in data set [2] it was 8.1 nM; in data set [3] it was 7350 nM; in data set [4] it was 9930 nM. Besides, the CC50 in data set [5] worked out at 22100 nM.

For the molecule `COc1ccc(Nc2ncnc3cc(OC(C)C)c4c(c23)OCCO4)cc1[N+](=O)[O-]`, the IC50 in data set [1] and in data set [2] was above 1000 nM in each case.

Take `COCCOc1cc2ncnc(Nc3ccc(OC)c([N+](=O)[O-])c3)c2c2c1OCCO2`: the IC50 in data set [1] and in data set [2] was above 1000 nM each time.

For the molecule `C#Cc1cccc(Nc2ncnc3cc(OC(C)C)c4c(c23)OCCO4)c1`, the concentration for half-maximal inhibition (IC50) in data set [1] turned out to be 23.7 nM; in data set [2] it was 31.4 nM; in data set [3], 4540 nM; in data set [4], 6080 nM. Besides, the CC50 in data set [5] is 22100 nM.

Regarding `C#Cc1cccc(Nc2ncnc3cc(OC(C)COC)c4c(c23)OCCO4)c1` (stereo not given), the IC50 came out at 474 nM in data set [1] and 76.1 nM in data set [2].

As for `FC(F)(F)c1cccc(Nc2ncnc3cc(OCCCN4CCOCC4)c4c(c23)OCCO4)c1`, the midpoint of inhibition in data set [1], the IC50, lay at 97.2 nM.

For the molecule `CCOC(C)Oc1cc2ncnc(Nc3ccc(C)c(C#N)c3)c2c2c1OCCO2` (stereo not given), the IC50 in data set [1] and in data set [2] was above 1000 nM each time.

In the case of `CCOC(C)Oc1cc2ncnc(Nc3ccc(F)c(C#N)c3)c2c2c1OCCO2` (stereo not given), the figures for the IC50 in data set [1] and in data set [2] were 352 nM and above 1000 nM, respectively.

`Clc1cccc(Nc2ncnc3cc(OCCCN4CCOCC4)c4c(c23)OCCO4)c1` yielded an IC50 in data set [1] of 21.9 nM.

Take `CCOc1cc2ncnc(Nc3cccc(OC)c3)c2c2c1OCCO2`: the IC50 was 4.4 nM in data set [1] and 70 nM in data set [2]. In addition, the CC50 in data set [5] worked out at 25300 nM.

In the case of `Fc1ccc(Nc2ncnc3cc(OC4CCOC4)c4c(c23)OCCO4)cc1Cl` (stereo not given), the IC50 in data set [1] is 20.5 nM; in data set [2] it was 151 nM.

As to `CCOc1cc2ncnc(Nc3ccc(C)cc3)c2c2c1OCCO2`, the IC50 in data set [1] amounted to 3.6 nM; in data set [2] it was 124 nM. For the same molecule, the CC50 in data set [5] amounted to 27400 nM.

Turning to `CC(C)Oc1cc2ncnc(Nc3ccc(F)c(C#N)c3)c2c2c1OCCO2`, the IC50 in data set [1] was 314 nM; in data set [2], above 1000 nM.

With `COCCOc1cc2ncnc(Nc3ccc(F)cc3)c2c2c1OCCO2`, the IC50 in data set [1] is 200 nM; in data set [2], above 1000 nM. In addition, the CC50 in data set [5] amounted to 25900 nM.

Regarding `COCCOc1cc2ncnc(Nc3cccc(OC)c3)c2c2c1OCCO2`, the half-maximal inhibitory concentration (IC50) turned out to be 160 nM in data set [1] and 109 nM in data set [2]. In addition, in data set [5], the CC50 was determined as 20800 nM.

Take `COCCOc1cc2ncnc(Nc3ccc(F)c(Cl)c3)c2c2c1OCCO2`: the IC50 came to 13.1 nM in data set [1], 10.5 nM in data set [2], 5930 nM in data set [3] and 13900 nM in data set [4].

In data set [1], `Brc1cccc(Nc2ncnc3cc(OCCCN4CCOCC4)c4c(c23)OCCO4)c1` registered an IC50 of 18.5 nM.

Turning to `C#Cc1cccc(Nc2ncnc3cc(OC4CCOCC4)c4c(c23)OCCO4)c1`, the IC50 in data set [1] was 57.8 nM; in data set [2], above 1000 nM.

Take `C#Cc1cccc(Nc2ncnc3cc(OC4CCOC4)c4c(c23)OCCO4)c1` (stereo not given): the IC50 in data set [1] came out at 16.7 nM; in data set [2] it was 324 nM.

Take `CCOC(C)Oc1cc2ncnc(Nc3ccc(F)c([N+](=O)[O-])c3)c2c2c1OCCO2` (stereo not given): the IC50 stood at 232 nM in data set [1] and 271 nM in data set [2].

On to `COCCOc1cc2ncnc(Nc3ccc(Cl)c([N+](=O)[O-])c3)c2c2c1OCCO2`, for which the IC50 in data set [1] is 36.2 nM; in data set [2], above 1000 nM.

For `Fc1ccc(Nc2ncnc3cc(OCC4CCCO4)c4c(c23)OCCO4)cc1Cl` (stereo not given), the 50% inhibitory concentration (IC50) was 24.1 nM in data set [1] and above 1000 nM in data set [2].

Regarding `Fc1ccc(Nc2ncnc3cc(OC4CCOCC4)c4c(c23)OCCO4)cc1Cl`, the IC50 in data set [1] was 58.8 nM; in data set [2] it was above 1000 nM.

Consider `CCOc1cc2ncnc(Nc3ccc(F)c(Cl)c3)c2c2c1OCCO2`, for which the IC50 in data set [1] came out at 2 nM; in data set [2], 6.9 nM; in data set [3] it was 22700 nM; in data set [4], 16100 nM. In addition, the CC50 in data set [5] amounted to 37000 nM.

With `COc1cc2ncnc(Nc3ccc(F)c(Cl)c3)c2c2c1OCCO2`, the figures for the IC50 in data set [1] and in data set [2] were 22.5 nM and 1000 nM, respectively.

Regarding `Cc1ccc(Nc2ncnc3cc(OC(C)C)c4c(c23)OCCO4)cc1C#N`, the IC50 in data set [1] was 416 nM; in data set [2] it was above 1000 nM.

As to `C#Cc1cccc(Nc2ncnc3cc(OCCOC)c(OCCOC)cc23)c1` [ERLOTINIB], the IC50 in data set [3] was 3910 nM; in data set [4], 7350 nM. In data set [5], the CC50 came out at 28200 nM.

Broadly, the IC50 is the concentration needed to halve the response being measured. As a reminder, the CC50 is the concentration that lowers cell viability or growth by half.
